Test results taken from US20200102264A1, “MARMELIN ANALOGS AND METHODS OF USE IN CANCER TREATMENT” (THE UNIVERSITY OF KANSAS, priority 2014, published 2020).
“Also recorded” adds a separate entry of the source.

Tests used:
[1] = test system: Cyclin D1, c-Myc, Akt phosphorylation, COX-2, VEGF; assay: western blot analysis, cancer promoting genes; assay type: cell-based; details: HCT116 and SW480 cells, 48 h
Protocol: The pathways for apoptosis were studied to determine whether the analogs were capable of inhibiting certain aspects of the pathways. […] HCT116 and SW480 cells treated with MRL, THB, THBCD, DHB, DHBCD and CD for 48 h and performed for western blot analysis. […] It is shown that THBCD also activates caspase 8 and caspase 9. Furthermore, THB and THBCD inhibit anti-apoptotic protein Bcl2 and BclXL levels. […] HCT116 and SW480 cells treated with MRL, THB, THBCD, DHB, DHBCD and CD for 48 h and performed for western blot analysis. Furthermore, THB and THBCD inhibit phosphorylation of Akt (FIG. 3).

cancer stem cells = assay: colonosphere formation; assay type: cell-based
Protocol: It was also determined the analogs inhibit colonosphere formation from cancer stem cells. […] The columns are 0, 10, 25, and 50 micromolar concentrations of the compounds labeled by rows.
The effect of the compounds on colonosphere formation was determined. […] Overall, the analogs have shown they can be used as chemotherapeutic agents against colon, pancreatic and bladder cancer.

DCLK1 = target: T1, DCLK1 (Homo sapiens, UniProt O15075); assay: in vitro kinase assay using recombinant DCLK1; assay type: biochemical; details: recombinant DCLK1, dose dependent
T1 construct: we performed an in vitro kinase assay using recombinant DCLK1
Excerpt: DCLK1 encodes a calmodulin-like kinase domain, and has homology to calmodulin kinases CAMKII and CAMKIV. We performed homology modeling and determined that THB can interact with the kinase domain with binding energy of −5.94. Furthermore we performed an in vitro kinase assay using recombinant DCLK1. […] Furthermore, THB and THBCD inhibit cancer stem cell marker DCLK1 expression in the xenograft tumors in both immunohistochemistry and western blot analysis (data not shown).

[2] = test system: Presenilin, Nicastrin, APH1 and PEN2; assay: γ-secretase complex protein expression; assay type: cell-based
Excerpt: The γ-secretase enzyme complex is made up of four proteins presenilin, nicastrin, APH-1 (anterior pharynx-defective 1), and PEN-2 (presenilin enhancer 2), all of which are essential for activity. Cleavage by the γ-secretase complex releases the Notch intracellular domain (NICD), which in turn translocates into the nucleus of the cells, interacts with the C promoter-binding factor-1 (CBF1) transcriptional cofactor and transactivates target genes, such as those in the hairy and enhancer of split (Hes) and Hes related with YRPW motif (Hey) family proteins. We determined whether the γ-secretase complex comprising of Presenilin, Nicastrin, APH1 and PEN2 is affected.

[3] = test system: 253JBV bladder cancer cells; assay: hexoseaminidase cell proliferation assay, 253JBV; assay type: cell-based
Protocol: (§1) Using hexoseaminidase assay, we determined the effect of the compounds on cell proliferation. […] The IC50 value at 48 hours is below 10 μM in all the cancer cell lines.

[4] = test system: colon, pancreatic and bladder cancer cells; assay: hexoseaminidase cell proliferation assay, summaries over cell lines; assay type: cell-based; details: dose and time dependent
Protocol: Water solubility studies were performed with the CD/analog complexes. […] The observed IC50 value of THBCD at 48 h is below 10 μM in all the colon, pancreatic and bladder cancer cells.
as §1
Using hexoseaminidase assay, we determined the effect of the compounds on cell proliferation. […] The MRL16 IC50 value at 48 hours is below 0.3 μM in Colon cancer cell lines. […] Overall, the analogs can be used as chemotherapeutic agents against colon and pancreatic cancer.

T1 sequence (O15075 whole entry): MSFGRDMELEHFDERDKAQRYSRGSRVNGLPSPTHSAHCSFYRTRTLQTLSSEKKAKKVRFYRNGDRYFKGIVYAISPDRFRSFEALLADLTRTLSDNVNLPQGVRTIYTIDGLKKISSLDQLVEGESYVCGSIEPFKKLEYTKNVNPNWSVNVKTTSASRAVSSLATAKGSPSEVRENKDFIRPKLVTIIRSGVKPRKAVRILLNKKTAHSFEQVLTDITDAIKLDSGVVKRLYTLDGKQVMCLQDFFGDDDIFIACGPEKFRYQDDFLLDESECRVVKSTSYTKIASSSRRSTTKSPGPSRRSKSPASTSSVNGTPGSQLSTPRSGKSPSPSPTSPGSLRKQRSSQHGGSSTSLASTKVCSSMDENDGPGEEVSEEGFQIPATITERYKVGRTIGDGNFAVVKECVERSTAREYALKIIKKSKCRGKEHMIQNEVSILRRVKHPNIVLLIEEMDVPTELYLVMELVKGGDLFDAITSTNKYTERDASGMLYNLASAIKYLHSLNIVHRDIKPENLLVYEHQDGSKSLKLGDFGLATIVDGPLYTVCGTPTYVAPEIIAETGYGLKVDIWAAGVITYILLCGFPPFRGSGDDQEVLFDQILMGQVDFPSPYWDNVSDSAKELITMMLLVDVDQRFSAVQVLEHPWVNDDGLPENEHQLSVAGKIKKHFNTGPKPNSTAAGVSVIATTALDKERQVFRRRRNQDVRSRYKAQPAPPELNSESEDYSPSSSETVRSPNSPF

For `O=C(N/N=C/c1ccc(O)c(O)c1O)c1cc2ccccc2cc1O` [MRL THB], the “COX-2 and VEGF expressions” value [1] was “inhibit”, the “cyclin D1 and c-Myc levels” value [1] was “inhibit” and the “phosphorylation of Akt” value [1] was “inhibit”. The colonosphere formation (cancer stem cells) was “significantly inhibited colonosphere formation”, the DCLK1 kinase activity (DCLK1) was “significantly reduced” and the “expression of Presenilin, Nicastrin, APH1 and PEN2” value [2] was “downregulation”. For the same molecule, the IC50 ([3]; 48 h) was 38 µM, the IC50 ([3]; 72 h) was 15 µM and the “inhibition of cell proliferation (in words)” value [4] was “potent inhibitor; also recorded: inhibit proliferation”.
